Values quoted from earlier work, collected in patent US11154507B2, “Freeze-dried aripiprazole formulation” (OTSUKA PHARMACEUTICAL CO., LTD., priority 2011, dated 2021).

Details: room temperature

solubility in water: < 1 µg/mL
SMILES: O=C1CCc2ccc(OCCCCN3CCN(c4cccc(Cl)c4Cl)CC3)cc2N1 [Aripiprazole]
